The source of these data is article PMC3384240, “Related bifunctional restriction endonuclease-methyltransferase triplets: TspDTI, Tth111II/TthHB27I and TsoI with distinct specificities” (BMC Molecular Biology, 2012).

The experiment has as its target T1, TspDTI (Thermus sp. DT, UniProt A8QN47).
T1 construct: recombinant from E. coli DH11S [pRZ-TspDTI], one extra Ala codon (GCG) after the start Met; native enzyme from Thermus sp; DT also purified; monomer; N-terminus […]
Nature of the experiment: lambda DNA cleavage, agarose gel. The following applies: Mg2+ restriction buffer, 70 C, 30 min, allosteric activator (site not established). In kind it is biochemical.

T1 sequence (A8QN47 entry or part of it): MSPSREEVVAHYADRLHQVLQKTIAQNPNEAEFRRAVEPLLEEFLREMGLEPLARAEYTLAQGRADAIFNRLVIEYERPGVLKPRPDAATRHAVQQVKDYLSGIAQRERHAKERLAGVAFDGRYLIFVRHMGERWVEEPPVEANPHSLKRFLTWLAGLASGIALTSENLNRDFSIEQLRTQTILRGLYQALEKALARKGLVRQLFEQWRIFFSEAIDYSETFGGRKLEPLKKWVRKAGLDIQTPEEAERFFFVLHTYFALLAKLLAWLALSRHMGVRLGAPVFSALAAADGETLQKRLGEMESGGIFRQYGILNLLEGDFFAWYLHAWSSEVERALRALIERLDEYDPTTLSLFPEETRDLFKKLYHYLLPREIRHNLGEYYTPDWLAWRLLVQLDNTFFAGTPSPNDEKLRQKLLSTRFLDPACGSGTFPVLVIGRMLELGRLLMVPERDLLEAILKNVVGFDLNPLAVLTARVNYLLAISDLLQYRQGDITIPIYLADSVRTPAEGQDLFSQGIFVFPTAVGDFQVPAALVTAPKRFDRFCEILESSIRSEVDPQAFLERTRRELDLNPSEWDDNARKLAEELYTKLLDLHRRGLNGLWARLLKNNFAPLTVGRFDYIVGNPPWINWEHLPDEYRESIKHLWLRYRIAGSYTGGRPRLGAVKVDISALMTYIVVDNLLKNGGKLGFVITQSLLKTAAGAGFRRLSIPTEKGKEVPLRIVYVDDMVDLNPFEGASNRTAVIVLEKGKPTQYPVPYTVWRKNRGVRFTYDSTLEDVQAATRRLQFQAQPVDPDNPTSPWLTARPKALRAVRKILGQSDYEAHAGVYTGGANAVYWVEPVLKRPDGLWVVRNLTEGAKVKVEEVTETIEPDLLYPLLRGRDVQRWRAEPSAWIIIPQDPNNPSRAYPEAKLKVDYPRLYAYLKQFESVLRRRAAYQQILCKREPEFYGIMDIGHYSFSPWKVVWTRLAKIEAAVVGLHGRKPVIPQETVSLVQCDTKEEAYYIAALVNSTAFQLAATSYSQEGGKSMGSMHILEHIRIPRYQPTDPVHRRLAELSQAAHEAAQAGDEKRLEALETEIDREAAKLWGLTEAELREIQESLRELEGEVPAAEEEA

Turning to `C[S+](CC[C@H](N)C(=O)O)C[C@H]1O[C@@H](n2cnc3c(N)ncnc32)[C@H](O)[C@@H]1O` (some centres unmarked) [SAM], under “stimulates REase at 50 uM SAM, also methyl donor of the MTase activity (200 uM)”, the “lambda DNA cleavage, agarose gel” value was “is stimulated equally by both SAM and its analogue - SIN”.

Consider `Nc1ncnc2c1ncn2[C@@H]1O[C@H](C[C@@H](N)CC[C@H](N)C(=O)O)[C@@H](O)[C@H]1O` [SIN], for which, under “stimulates REase at 50 uM SIN, SAM analogue, not a methyl donor”, the “lambda DNA cleavage, agarose gel” value is “is stimulated equally by both SAM and its analogue - SIN”.
